Measurements as given in publication PMC8231400, “Synthesis, biological evaluation and molecular docking investigation of new sulphonamide derivatives bearing naphthalene moiety as potent tubulin polymerisation inhibitors” (Journal of Enzyme Inhibition and Medicinal Chemistry, 2021).
One block for each molecule: values may come before it.

Key:
[1] = system: MCF-7 human breast cancer cells; assay: In vitro antiproliferative assay (CCK-8), MCF-7; format: cell-based; settings: CCK-8, 48 h, mean of three experiments
Description: (§1) In vitro antiproliferative assay 179 Human breast cancer cell line (MCF -7) and human non-small cell lung 180 carcinoma cell line (A549) were used to determine the antiproliferative of 181 the test compounds by CCK -8 assay. The cells were cultured in RPMI 182 media with 10% fetal bovine serum at 37 °C and 5% CO2 in a humidify 183 environment. In a word, cells were seeded in 96 -well plates 184 (1×10^5 cells/well) and cultured for overnight. […] Finally, 186 cell viability was determined by the CCK -8 method. 187 1.3. […] 190 EGTA) with 1 mM GTP and 5% glycerol. Then the plate was 191 immediately transferred to the spectrophotometer and microtubule 192 polymerization was monitored under 340 nm at 37 °C every 1 min over 193 20 min. […] 196 then the cells were treated with different concentrations of compound 5c 7

[2] = system: A549 human non-small cell lung carcinoma cells; assay: In vitro antiproliferative assay (CCK-8), A549; format: cell-based; settings: CCK-8, 48 h, mean of three experiments
Description: as §1

MCF-7 cancer cells [3] = assay: Annexin V-FITC/PI cell apoptosis assay; format: cell-based, human; set-up: Q1 quadrant / Q2 quadrant (upper right, late apoptotic cells) / Q4 quadrant / Q3 quadrant (lower right, early apoptotic cells): unit not given here; settings: 24 h
Description: Since many literatures have reported that tubulin polymerisation inhibitors are able to induce cellular apoptosis [22]^,[30], the Annexin V-FITC/PI assay was carried out to examine the influence of compound 5c on cell apoptosis in MCF-7 cancer cells. […]
201 1.5. Cell apoptosis assay
203 then the cells were treated with different concentrations of compound 5c
204 for 24 h. Subsequently, the cells were incubated with Annexin-V/FITC
205 binding buffer and PI staining solution at room temperature. Finally, the
206 stained cells were analyzed using flow cytometry.
207 1.6. […]

tubulin = assay: In vitro tubulin polymerisation inhibitory assay (absorbance 340 nm); format: biochemical; settings: 37 °C, 20 min, read-out: IC50 tubulin polymerisation inhibition
Description: In vitro antiproliferative assay 179 Human breast cancer cell line (MCF -7) and human non-small cell lung 180 carcinoma cell line (A549) were used to determine the antiproliferative of 181 the test compounds by CCK -8 assay. The cells were cultured in RPMI 182 media with 10% fetal bovine serum at 37 °C and 5% CO2 in a humidify 183 environment. In a word, cells were seeded in 96 -well plates 184 (1×10^5 cells/well) and cultured for overnight. […] Finally, 186 cell viability was determined by the CCK -8 method. 187 1.3. […] 190 EGTA) with 1 mM GTP and 5% glycerol. Then the plate was 191 immediately transferred to the spectrophotometer and microtubule 192 polymerization was monitored under 340 nm at 37 °C every 1 min over 193 20 min.

MCF-7 cancer cells [4] = assay: Cell cycle assay by flow cytometry (PI); format: cell-based, human; settings: 24 h
Description: Due to microtubules play an important role in eukaryotic cell division, tubulin polymerisation inhibitors can disrupt regulated cell cycle distribution and block the cell cycle in G2/M phase [21]^,[29]. Therefore, the effect of compound 5c on the cell cycle of MCF-7 cancer cells was evaluated by using flow cytometry. […] 172 51.01, 56.22, 60.63, 107.33, 125.00, 125.21, 125.24, 127.40, 128.17, […] HRMS (ESI) calcd for [M+Na] + 175 C26H24N2NaO7S+: 531.1196 found 531.1162. Elemental analysis for 176 C26H24N2O7S: C, 61.41; H, 4.76; N, 5.51; S, 6.30 found C, 61.52; H, 177 4.702; N, 5.21; S, 6.100. […] In vitro antiproliferative assay 179 Human breast cancer cell line (MCF -7) and human non-small cell lung 180 carcinoma cell line (A549) were used to determine the antiproliferative of 181 the test compounds by CCK -8 assay. The cells were cultured in RPMI 182 media with 10% fetal bovine serum at 37 °C and 5% CO2 in a humidify 183 environment. In a word, cells were seeded in 96 -well plates 184 (1×10^5 cells/well) and cultured for overnight. After incubation, the cells 185 were treated with test compounds and positive control for 48 h. Finally, 186 cell viability was determined by the CCK -8 method. 187 1.3. In vitro tubulin polymerization inhibitory assay 188 Tubulin protein was mixed with different concentrations of compound 5c […] 190 EGTA) with 1 mM GTP and 5% glycerol. Then the plate was 191 immediately transferred to the spectrophotometer and microtubule 192 polymerization was monitored under 340 nm at 37 °C every 1 min over 193 20 min. […] Cell cycle assay 195 MCF-7 cells were seeded into 6-well plates and incubated for 24 h, and 196 then the cells were treated with different concentrations of compound 5c 7 page 8: 197 for 24 h. After incubation, the cells were harvested by centrifugation, and 198 fixed in ice-cold 70% ethanol overnight. After removed the ethanol, the 199 cells were incubated with RNase and propidium iodide. Finally, the 200 samples were analyzed by flow cytometry. 201 1.5. Cell apoptosis assay […] 203 then the cells were treated with different concentrations of compound 5c 204 for 24 h. Subsequently, the cells were incubated with Annexin-V/FITC 205 binding buffer and PI staining solution at room temperature. Finally, the 206 stained cells were analyzed using flow cytometry. 207 1.6. Molecular docking 208 Molecular docking studies were performed to investigate the binding […] The 210 three-dimensional (3D) coordinate of tubulin (PDB ID: 1SA0) was 211 downloaded from Protein Data Bank (www.rcsb.org). The 3D structure of 212 the compounds was obtained by ChemBioDraw Ultra 14.0 and 213 ChemBio3D Ultra 14.0 softwares. The AutoDockTools 1.5.6 package was 214 employed to generate the docking input files. The search grid of tubulin 215 was identified as center_x: 118.921, center_y: 89.718, and center_z: 216 5.932 with dimensions size_x: 15, size_y: 15, and size_z: 15. The value 217 of exhaustiveness was set to 20. For Vina docking, the default parameters 218 were used if it was not mentioned. The best-scoring pose as judged by the 219 Vina docking score was chosen and visually analyzed using PyMoL 1.7.6 220 software (www.pymol.org). 221 1.7 Molecular dynamics 222 The Amber 12 1-3 and AmberTools 13 programs were used for MD 223 simulations of the selected docked pose. MBPPS was first prepared by 224 ACPYPE 4, a tool based on ANTECHAMBER 5, 6 for generating 8

[5] = Cytotoxicity against human normal liver cell line; format: cell-based; settings: LO2 normal liver cells

SMILES: O=c1[nH]cc(F)c(=O)[nH]1 [5-Fu, 5-fluorouracil, reference compound]
IC50 ([1]; Homo sapiens, MCF7): 11.6 ± 0.6 µM
IC50 ([2]; Homo sapiens, A549): 2.75 ± 0.31 µM

SMILES: COc1ccc(CN(c2cc(OC)c(OC)c(OC)c2)S(=O)(=O)c2ccc(C)cc2)cc1 [5a]
IC50 ([1]; Homo sapiens, MCF7): 3.64 ± 0.25 µM
IC50 ([2]; Homo sapiens, A549): 5.34 ± 0.31 µM

SMILES: COc1ccc(CN(c2cc(OC)c(OC)c(OC)c2)S(=O)(=O)c2ccccc2)cc1 [5b]
IC50 ([1]; Homo sapiens, MCF7): > 30 µM
IC50 ([2]; Homo sapiens, A549): > 30 µM

SMILES: COc1ccc(CN(c2cc(OC)c(OC)c(OC)c2)S(=O)(=O)c2cccc3ccccc23)cc1 [5c]
Q1 quadrant (MCF-7 cancer cells [3]; MCF-7, 0.125 μM): 0.88
Q2 quadrant (upper right, late apoptotic cells) (MCF-7 cancer cells [3]; MCF-7, 0.125 μM): 11.3
Q3 quadrant (lower right, early apoptotic cells) (MCF-7 cancer cells [3]; MCF-7, 0.125 μM): 7.37
Q4 quadrant (MCF-7 cancer cells [3]; MCF-7, 0.125 μM): 80.4
total numbers of early and late apoptotic cells (MCF-7 cancer cells [3]; MCF-7, 0.125 μM): 18.67%
Q1 quadrant (MCF-7 cancer cells [3]; MCF-7, 0.25 μM): 0.77
Q2 quadrant (upper right, late apoptotic cells) (MCF-7 cancer cells [3]; MCF-7, 0.25 μM): 12.6
Q3 quadrant (lower right, early apoptotic cells) (MCF-7 cancer cells [3]; MCF-7, 0.25 μM): 20.5
Q4 quadrant (MCF-7 cancer cells [3]; MCF-7, 0.25 μM): 66.1
total numbers of early and late apoptotic cells (MCF-7 cancer cells [3]; MCF-7, 0.25 μM): 33.1%
total numbers of early and late apoptotic cells (MCF-7 cancer cells [3]; MCF-7, 0.5 µM): 50.3%
Q1 quadrant (MCF-7 cancer cells [3]; MCF-7, 0.50 μM): 0.58
Q2 quadrant (upper right, late apoptotic cells) (MCF-7 cancer cells [3]; MCF-7, 0.50 μM): 17.7
Q3 quadrant (lower right, early apoptotic cells) (MCF-7 cancer cells [3]; MCF-7, 0.50 μM): 32.6
Q4 quadrant (MCF-7 cancer cells [3]; MCF-7, 0.50 μM): 49.2
IC50 (tubulin): 2.8 µM
G1 population (MCF-7 cancer cells [4]; MCF-7, 0.125 μM): 44.63%
G2/M population (MCF-7 cancer cells [4]; MCF-7, 0.125 μM): 30.77%
S population (MCF-7 cancer cells [4]; MCF-7, 0.125 μM): 24.59%
G1 population (MCF-7 cancer cells [4]; MCF-7, 0.25 μM): 6.61%
G2/M population (MCF-7 cancer cells [4]; MCF-7, 0.25 μM): 57.50%
S population (MCF-7 cancer cells [4]; MCF-7, 0.25 μM): 35.89%
G2/M population (MCF-7 cancer cells [4]; MCF-7, 0.5 µM): 82.22%
G1 population (MCF-7 cancer cells [4]; MCF-7, 0.50 μM): 6.89%
S population (MCF-7 cancer cells [4]; MCF-7, 0.50 μM): 10.89%
IC50 ([1]; Homo sapiens, MCF7): 0.51 ± 0.03 µM
IC50 ([2]; Homo sapiens, A549): 0.33 ± 0.01 µM
IC50 [5]: 12.7 ± 3.26 µM

SMILES: COc1ccc(CN(c2cc(OC)c(OC)c(OC)c2)S(=O)(=O)c2ccc3ccccc3c2)cc1 [5d]
IC50 ([1]; Homo sapiens, MCF7): 5.72 ± 0.18 µM
IC50 ([2]; Homo sapiens, A549): > 30 µM

SMILES: COc1ccc(CN(c2cc(OC)c(OC)c(OC)c2)S(=O)(=O)c2ccc(OC)cc2)cc1 [5e]
IC50 ([1]; Homo sapiens, MCF7): 0.87 ± 0.05 µM
IC50 ([2]; Homo sapiens, A549): 0.62 ± 0.04 µM

SMILES: COc1cc(N(Cc2ccc(C)cc2)S(=O)(=O)c2cccc3ccccc23)cc(OC)c1OC [8b]
IC50 ([1]; Homo sapiens, MCF7): 2.2 ± 0.19 µM
IC50 ([2]; Homo sapiens, A549): 1.29 ± 0.19 µM

SMILES: COc1cc(N(Cc2ccc(C#N)cc2)S(=O)(=O)c2cccc3ccccc23)cc(OC)c1OC [8h]
IC50 ([1]; Homo sapiens, MCF7): > 30 µM
IC50 ([2]; Homo sapiens, A549): > 30 µM

SMILES: COc1cc(N(Cc2ccccc2[N+](=O)[O-])S(=O)(=O)c2cccc3ccccc23)cc(OC)c1OC [8i]
IC50 ([1]; Homo sapiens, MCF7): > 30 µM
IC50 ([2]; Homo sapiens, A549): 4.76 ± 0.31 µM

SMILES: COc1ccc(/C=C\c2cc(OC)c(OC)c(OC)c2)cc1O [CA-4, combretastatin A-4, reference compound]
IC50 ([1]; Homo sapiens, MCF7): 5.55 ± 0.11 µM
IC50 ([2]; Homo sapiens, A549): 0.029 ± 0.004 µM

SMILES: N.N.[Cl][Pt][Cl] [Cisplatin, reference compound]
IC50 [1]: 11.2 ± 0.75 µM
IC50 [2]: 4.92 ± 0.46 µM

More lines, now with the values ahead:

IC50 ([1]; Homo sapiens, MCF7): 20 ± 0.71 µM
IC50 ([2]; Homo sapiens, A549): > 30 µM
SMILES: COc1cccc(CN(c2cc(OC)c(OC)c(OC)c2)S(=O)(=O)c2cccc3ccccc23)c1 [8a]

IC50 ([1]; Homo sapiens, MCF7): > 30 µM
IC50 ([2]; Homo sapiens, A549): > 30 µM
SMILES: COc1cc(N(Cc2cccc(F)c2)S(=O)(=O)c2cccc3ccccc23)cc(OC)c1OC [8c]

IC50 ([1]; Homo sapiens, MCF7): 8.02 ± 0.58 µM
IC50 ([2]; Homo sapiens, A549): > 30 µM
SMILES: COc1cc(N(Cc2ccc(Br)cc2)S(=O)(=O)c2cccc3ccccc23)cc(OC)c1OC [8d]

IC50 ([1]; Homo sapiens, MCF7): 15.6 ± 0.34 µM
IC50 ([2]; Homo sapiens, A549): 14.4 ± 0.8 µM
SMILES: COc1cc(N(Cc2ccc(Cl)cc2)S(=O)(=O)c2cccc3ccccc23)cc(OC)c1OC [8e]

IC50 ([1]; Homo sapiens, MCF7): > 30 µM
IC50 ([2]; Homo sapiens, A549): > 30 µM
SMILES: COc1cc(N(Cc2cccc(Br)c2)S(=O)(=O)c2cccc3ccccc23)cc(OC)c1OC [8f]

IC50 ([1]; Homo sapiens, MCF7): > 30 µM
IC50 ([2]; Homo sapiens, A549): > 30 µM
SMILES: COc1cc(N(Cc2ccc(F)cc2)S(=O)(=O)c2cccc3ccccc23)cc(OC)c1OC [8g]
